The values below come from patent US5935955A, “Pharmaceutical piperazine compounds” (Xenova Limited, priority 1994, dated 1999).

Where a name gives a salt, the structure may show the parent alone. Read-outs that look alike come from different tables or passages of the source.

Data set [1] concerns AR 1.0 cells. Nature of the data set: Drug accumulation assay (tritiated daunorubicin). The format is cell-based. The conditions noted are these: Mus musculus; for IC50: daunorubicin 2 μM, 1 hr at 37° C., read-out: IC50 accumulation; for Emax: 1 h, read-out: Max accumulation. As to the method: AR 1.0 cells were seeded into 96 well opaque culture plates (Canberra Packard). The assay medium contained a mixture of tritiated Daunorubicin (DNR), a cytotoxic agent, and unlabelled DNR (0.3 μCi/ml; 2 μM). Compounds of formula I were serially diluted in assay medium over a range of concentrations from 5 nM to 100 μM. The cells were incubated at 37° C. for 1 hr before washing and determination of cell associated radioactivity. Results were expressed as % maximum accumulation where 100% accumulation is that observed in the presence of the known RMA verapamil at 100 μM. Where possible an IC50 was determined.

Data set [2] relates to AR 1.0 cells. Nature of the data set: Compound toxicity (proliferation, sulphorhodamine B). It is filed as cell-based. The conditions noted are these: Mus musculus, 96 h; compound alone; AR 1.0 cells; four day incubation; read-out: Compound toxicity (IC50).
For data set [3], the system named is AR 1.0 cells. Nature of the data set: Potentiation index for doxorubicin (doxorubicin titration with fixed concentration of compound). The conditions noted are these: RMA at 1 μM; doxorubicin, four days. It is filed as cell-based, mouse. As to the method:
The EMT6 mouse mammary carcinoma cell line and the MDR resistant sublime AR 1.0 were cultured in RPMI 1640 medium containing 10% foetal calf serum and 2 mM glutamine at 37° C. in 5% CO2. Cells were passaged between 1 in 200 and 1 in 2000 in the case of the parental cell line and between 1 in 20 and 1 in 200 in the case of the MDR resistant subline, after trypsinisation (0.25% trypsin, 0.2 gl^-1, EDTA).
Cells were cultured for four days with a titration of doxorubicin (0.01 nm-50 μM) in the presence of a fixed concentration of each compound. Proliferation was quantified as described by Skehan et. al, loc cit. The IC50 (concentration required to reduce proliferation to 50% of the untreated controls) for doxorubicin alone and with each compound were derived and used to calculate the potentiation index (PI): [formula]

Data set [4] has as its system AR 1.0 cells. In words: Potentiation of doxorubicin toxicity (fixed doxorubicin 0.86 μM, proliferation, sulphorhodamine B). The following applies: for IC50: with doxorubicin 0.86 μM, four day incubation, 5760 min, read-out: Toxicity with cytotoxic agent (IC50). The format is cell-based, mouse. An excerpt: Compounds of formula (I) were examined for their ability to potentiate the toxicity of doxorubicin in AR 1.0 cells.

Where [5] appears, read: % maximum accumulation, 100% = verapamil at 100 μM, compound 5 nM to 100 μM.

For `COc1cc2c(cc1OC)CN(CCc1ccc(NC(=O)c3ccc(/C=c4\[nH]c(=O)/c(=C/c5ccccc5)n(C)c4=O)cc3)cc1)CC2` [Compound 9006, N-(4-(2-(6,7-Dimethoxy-1,2,3,4-tetrahydro-2-isoquinolyl)ethyl)phenyl)-4-((3Z,6Z)-6-benzylidene-1-methyl-2,5-dioxo-3-piperazinylidene)methylbenzamide], the concentration for half-maximal inhibition (IC50) in the data set with AR 1.0 cells [1] is 0.4 µM; in the data set with AR 1.0 cells [2], 2 µM. Moreover, in the data set with AR 1.0 cells [3], the Potentiation index amounted to 1000.
For `CN1CCN(CCNC(=O)c2ccc(/C=c3\[nH]c(=O)/c(=C/c4ccccc4)n(C)c3=O)cc2)CC1` [Compound 9007, N-(2-(4-Methyl-1-piperazinyl)ethyl)-4-((3Z,6Z)-6-benzylidene-1-methyl-2,5-dioxo-3-piperazinylidene)methylbenzamide], the Emax with AR 1.0 cells [1] (setting [5]) worked out at 30%.
For the molecule `COc1cc2c(cc1OC)CN(CCNC(=O)c1ccc(/C=c3\[nH]c(=O)/c(=C/c4ccccc4)n(C)c3=O)cc1)CC2` [Compound 9008, N-(2-(6,7-Dimethoxy-1,2,3,4-tetrahydro-2-isoquinolyl)ethyl)-4-((3Z,6Z)-6-benzylidene-1-methyl-2,5-dioxo-3-piperazinylidene)methylbenzamide], the IC50 came out at 2 µM in the data set on AR 1.0 cells [4], 3 µM in the data set with AR 1.0 cells [1] and 10 µM with AR 1.0 cells [2].
With `CN(C)CC(O)COc1ccc(/C=c2\[nH]c(=O)/c(=C/c3ccccc3)n(C)c2=O)cc1` (stereo not drawn) [Compound 9023, (3Z,6Z)-6-Benzylidene-3-(4-(3-dimethylamino-2-hydroxypropoxy)benzylidene)-1-methyl-2,5-piperazinedione], the IC50 in the data set with AR 1.0 cells [4] is 5 µM; with AR 1.0 cells [2], 10 µM. The Emax with AR 1.0 cells [1] (setting [5]) was found to be 30%.
On to `CN1CCN(C(=O)c2ccc(/C=c3\[nH]c(=O)/c(=C/c4ccccc4)n(C)c3=O)cc2)CC1` [Compound 9052, 1-(4-((3Z,6Z)-6-Benzylidene-1-methyl-2,5-dioxo-3-piperazinylidene)methylbenzoyl)-4-methylpiperazine, hydrochloride], for which the IC50 with AR 1.0 cells [1] came to 100 µM.
`Cn1c(=O)/c(=C/c2ccc(C(=O)NCCN3CCOCC3)cc2)[nH]c(=O)/c1=C/c1ccccc1` [Compound 9053, N-(2-Morpholinoethyl)-4-((3Z,6Z)-6-benzylidene-1-methyl-2,5-dioxo-3-piperazinylidene)methylbenzamide, hydrochloride]: the IC50 in the data set on AR 1.0 cells [1] amounted to 50 µM; with AR 1.0 cells [2], 40 µM.
For `Cn1c(=O)/c(=C/c2ccc(C(=O)Nc3ccc(N4CCOCC4)cc3)cc2)[nH]c(=O)/c1=C/c1ccccc1` [Compound 9054, N-(4-Morpholinophenyl)-4-((3Z,6Z)-6-benzylidene-1-methyl-2,5-dioxo-3-piperazinylidene)methylbenzamide, hydrochloride], the IC50 in the data set on AR 1.0 cells [4] is 30 µM; in the data set on AR 1.0 cells [2], 50 µM. The Emax in the data set on AR 1.0 cells [1] (setting [5]) is 32%.
Take `C=CCNC(=O)c1ccc(/C=c2\[nH]c(=O)/c(=C/c3ccccc3)n(C)c2=O)cc1` [Compound 9070, N-Allyl-4-((3Z,6Z)-6-benzylidene-1-methyl-2,5-dioxo-3-piperazinylidene)methylbenzamide]: the concentration for half-maximal inhibition (IC50) is 5 µM with AR 1.0 cells [1] and 40 µM with AR 1.0 cells [2].
In the case of `CN(CCNC(=O)c1ccc(/C=c2\[nH]c(=O)/c(=C/c3ccccc3)n(C)c2=O)cc1)C(c1ccccc1)c1ccccc1` [Compound 9076, N-(2-Diphenylmethylmethylaminoethyl)-4-((3Z,6Z)-6-benzylidene-1-methyl-2,5-dioxo-3-piperazinylidene)methylbenzamide, hydrochloride], the Emax in the data set with AR 1.0 cells [1] (setting [5]) is 44%.
Take `Cn1c(=O)/c(=C/c2ccc(C(=O)Nc3ccc(CCN4CCc5c([nH]c6ccccc56)C4)cc3)cc2)[nH]c(=O)/c1=C/c1ccccc1` [Compound 9080, N-(4-(2-(1,2,3,4-Tetrahydro-β-carbolin-2-yl)ethyl)phenyl)-4-((3Z,6Z)-6-benzylidene-1-methyl-2,5-dioxo-3-piperazinylidene)methylbenzamide]: the Emax with AR 1.0 cells [1] was 18%.
With `Cn1c(=O)/c(=C/c2cccc(C(=O)Nc3ccc(CCN4CCN(c5ccccc5)CC4)cc3)c2)[nH]c(=O)/c1=C/c1ccccc1` [Compound 9083, N-(4-(2-(4-Phenyl-1-piperazinyl)ethyl)phenyl)-3-((3Z,6Z)-6-benzylidene-1-methyl-2,5-dioxo-3-piperazinylidene)methylbenzamide], the results for the IC50 in the data set on AR 1.0 cells [4], with AR 1.0 cells [1] and in the data set with AR 1.0 cells [2] were 0.1 µM, 2 µM and 3 µM, respectively.
In the case of `Cn1c(=O)/c(=C/c2ccc(C(=O)Nc3ccc(CN4CCc5c([nH]c6ccccc56)C4)cc3)cc2)[nH]c(=O)/c1=C/c1ccccc1` [Compound 9096, N-(4-(1,2,3,4-Tetrahydro-β-carbolin-2-yl)methylphenyl)-4-((3Z,6Z)-6-benzylidene-1-methyl-2,5-dioxo-3-piperazinylidene)methylbenzamide], the Emax with AR 1.0 cells [1] was 20%.
In the case of `Cn1c(=O)/c(=C/c2ccc(C(=O)Nc3ccc(CCN4CCN(c5ccccc5)CC4)cc3)cc2)[nH]c(=O)/c1=C/c1ccccc1` [Compound 9103, N-(4-(2-(4-Phenyl-1-piperazinyl)ethyl)phenyl)-4-((3Z,6Z)-6-benzylidene-1-methyl-2,5-dioxo-3-piperazinylidene)methylbenzamide], in the data set with AR 1.0 cells [1] (setting [5]), the Emax turned out to be 20%.
For `COc1cc2c(cc1OC)CN(CCc1ccc(/C=c3\[nH]c(=O)/c(=C/c4ccccc4)n(C)c3=O)cc1)CC2` [Compound 9115, (3Z,6Z)-6-Benzylidene-3-(4-(2-(6,7-dimethoxy-1,2,3,4-tetrahydro-2-isoquinolyl)ethyl)benzylidene)-1-methyl-2,5-piperazinedione], the IC50 in the data set on AR 1.0 cells [4] was found to be 2 µM; with AR 1.0 cells [1], 5 µM; with AR 1.0 cells [2] it was 60 µM.
In the same order, the values of `Cn1c(=O)/c(=C/c2ccc(C(=O)NCCN3CCc4ccccc4C3)cc2)[nH]c(=O)/c1=C/c1ccccc1` [Compound 9116, N-(2-(1,2,3,4-Tetrahydro-2-isoquinolyl)ethyl)-4-((3Z,6Z)-6-benzylidene-1-methyl-2,5-dioxo-3-piperazinylidene)methylbenzamide, hydrochloride] are 1 µM, 4 µM and 8 µM.
In the same order, the values of `COc1ccc(CCNC(=O)c2ccc(/C=c3\[nH]c(=O)/c(=C/c4ccccc4)n(C)c3=O)cc2)cc1OC` [Compound 9117, N-(3,4-Dimethoxyphenethyl)-4-((3Z,6Z)-6-benzylidene-1-methyl-2,5-dioxo-3-piperazinylidene)methylbenzamide] are 3 µM, 5 µM and 8 µM.
In the same order, the values of `COc1cc2c(cc1OC)CN(Cc1ccc(NC(=O)c3cccc(/C=c4\[nH]c(=O)/c(=C/c5ccccc5)n(C)c4=O)c3)cc1)CC2` [Compound 9128, N-(4-(6,7-Dimethoxy-1,2,3,4-tetrahydro-2-isoquinolyl)methylphenyl)-3-((3Z,6Z)-6-benzylidene-1-methyl-2,5-dioxo-3-piperazinylidene)methylbenzamide] are 2 µM, 3 µM and 10 µM.
Regarding `COc1ccc(CCN(C)CCNC(=O)c2cccc(/C=c3\[nH]c(=O)/c(=C/c4ccccc4)n(C)c3=O)c2)cc1OC` [Compound 9137], the IC50 amounted to 4.5 µM with AR 1.0 cells [4], 2 µM in the data set with AR 1.0 cells [1] and 12 µM in the data set on AR 1.0 cells [2].
As for `COc1cc2c(cc1OC)CN(CCCc1ccc(NC(=O)c3cccc(/C=c4\[nH]c(=O)/c(=C/c5ccccc5)n(C)c4=O)c3)cc1)CC2` [Compound 9161, N-(4-(3-(6,7-Dimethoxy-1,2,3,4-tetrahydro-2-isoquinolyl)propyl)phenyl)-3-((3Z,6Z)-6-benzylidene-1-methyl-2,5-dioxo-3-piperazinylidene)methylbenzamide,hydrochloride], the Emax in the data set on AR 1.0 cells [1] (setting [5]) was 20%.
As to `COc1cc2c(cc1OC)CN(CC1CCN(C(=O)c3ccc(/C=c4\[nH]c(=O)/c(=C/c5ccccc5)n(C)c4=O)cc3)CC1)CC2` [Compound 9200, 1-(4-((3Z,6Z)-6-Benzylidene-1-methyl-2,5-dioxo-3-piperazinylidene)methylbenzoyl)-4-(6,7-dimethoxy-1,2,3,4-tetrahydroisoquinolyl)methylpiperidine], the results for the IC50 in the data set on AR 1.0 cells [4], with AR 1.0 cells [1] and in the data set with AR 1.0 cells [2] were 0.8 µM, 1.7 µM and 13 µM, respectively.
Turning to `COc1cccc2c1C(=O)c1c(O)c3c(c(O)c1C2=O)C[C@@](O)(C(=O)CO)C[C@@H]3O[C@H]1C[C@H](N)[C@H](O)[C@H](C)O1` [doxorubicin, reference compound], the “Toxicity of doxorubicin alone” value with AR 1.0 cells [4] (doxorubicin alone, 0.86 μM, AR 1.0 cells) was “non-toxic”.

Broadly, the IC50 is the concentration needed to halve the response being measured.
